BindingDB's records for doi:10.1021/jm050019i (University of Illinois At Chicago, 2005)

Target: T1, Dimer of Gag-Pol polyprotein [501-599,Q508K,L534I,L564I,C568A,C596A] (Human immunodeficiency virus 1, UniProt P03367, C568A/C596A/L534I/L564I/Q508K)
T1 construct: 501-599
Test: Protease Inhibition Assay
Details: pH 6.4; 25 °C
Procedure: The Ki values were determined using fluorogenic substrate, 2-(aminobenzoyl)-Thr-Ile-Nle-Phe(p-NO2)-Gln-ArgNH2. A standard curve relating changes in fluorescent intensity to changes in concentration of product was used to convert fluorescent changes into molar velocities. The amount of cleavage was determined by HPLC.

`COc1ccc(S(=O)(=O)N(CC(C)C)C[C@@H](O)[C@@H]2CCCC/C=C\COc3c(O)cccc3C(=O)N2)cc1` [(2R)-2-hydroxy-2-[(9S)-15-hydroxy-11-oxo-2,5,6,7,8,9,10,11-octahydro-1,10-benzoxazacyclotridecin-9-yl]-N-(4-methoxyphenyl)-N-(2-methylpropyl)ethane-1-sulfonamido] was tested, and the Ki was 2 nM.
